Results on 30 compounds are retold here after ChEMBL document CHEMBL1201862, “PubChem BioAssay data set” (2004).

SMILES strings stand for the structures.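 Where inhibition never reached the appropriate level, the endpoint shown equals the highest concentration tested. Otherwise, values were interpolated linearly from a five-concentration, 48-hour dose response in 96-well plates. GI50: concentration for 50% inhibition of growth.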 The source made the active and inactive calls. Rule as the data show it: active = GI50 up to about 1.1 µM and inactive = higher.

Test systems include DU-145; MDA-MB-231; MDA-MB-435; MDA-N.
Common to all, as to test: inhibition of tumour cell growth, NCI panel, 48 h

Turning to `C[C@]12CC[C@H](OC(=O)Cc3ccc(N(CCCl)CCCl)cc3)CC1=CC[C@@H]1[C@@H]2CC[C@]2(C)C(=O)CC[C@@H]12`, the GI50 in the assay with DU-145, with MDA-MB-231, with MDA-MB-435 and in the assay with MDA-N was > 100 µM (inactive) throughout.
As to `O=C(/C=C/c1ccccc1)Oc1cccc(O)c1`, the GI50 was 80.7 µM (inactive) in the assay with DU-145, 47.9 µM (inactive) in the assay with MDA-MB-231, > 100 µM (inactive) in the assay on MDA-MB-435 and 57.8 µM (inactive) in the assay on MDA-N.
The like results for `CC(C)=C[C@@H]1C[C@H](C)[C@H]2CC[C@H](C)[C@H]3C(=O)C(O)=C(C)C(=O)[C@]123` were, in that order, > 100 µM (inactive), > 100 µM (inactive), > 100 µM (inactive) and > 100 µM (inactive).
Taken in the same sequence, the figures for `C=C1N(C)c2ccc(S(=O)(=O)c3ccc4c(c3)C(C)(C)C(=C)N4C)cc2C1(C)C` were 60 µM (inactive), 33.6 µM (inactive), 30.8 µM (inactive) and 39 µM (inactive).
The like results for `COc1cccc(CCn2c(N)c(C#N)c3ccc([N+](=O)[O-])cc3c2=O)c1` were, in that order, > 46.5 µM (inactive), > 46.5 µM (inactive), 0.22 µM (active) and 0.256 µM (active).
Regarding `CC/C=C(\C(=C/CC)[N+](=O)[O-])[N+](=O)[O-]`, the GI50 in the assay on DU-145 was 21.3 µM (inactive); in the assay on MDA-MB-231, 21 µM (inactive); in the assay on MDA-MB-435, 16.8 µM (inactive); with MDA-N, 22.8 µM (inactive).
The like results for `CC(C)c1nccn1Cc1ccc(Cl)cc1Cl` were, in that order, 14.8 µM (inactive), 81.5 µM (inactive), 49.7 µM (inactive) and 38.6 µM (inactive).
Taken in the same sequence, the figures for `O=c1cnn(C/C=C\CO)c(=O)[nH]1` were > 100 µM (inactive), > 100 µM (inactive), > 100 µM (inactive) and > 100 µM (inactive).
The like results for `CSCCC(NC(=O)OCc1ccccc1)NC(=O)OCc1ccccc1` were, in that order, > 100 µM (inactive), > 100 µM (inactive), > 100 µM (inactive) and > 100 µM (inactive).
Take `CN(C)/C=N/CC(O)c1ccccc1` (stereo not given): the GI50 in the assay on DU-145, in the assay with MDA-MB-231, in the assay with MDA-MB-435 and with MDA-N was > 100 µM (inactive) each time.
For `O=S(=O)(N/C(=N\O)Nc1ccc(Cl)cc1)c1cc2ccccc2s1`, the GI50 is 20.9 µM (inactive) in the assay with DU-145, 17.3 µM (inactive) in the assay on MDA-MB-231, 16.6 µM (inactive) in the assay on MDA-MB-435 and 20.9 µM (inactive) with MDA-N.
Consider `CCCCCCOP(=O)(OCCCCCC)C(NC(=O)OCC)(C(F)(F)F)C(F)(F)F`, for which the GI50 with DU-145 is 93.1 µM (inactive); in the assay with MDA-MB-231, 24.3 µM (inactive); in the assay with MDA-MB-435, 36.6 µM (inactive); in the assay on MDA-N it was 36 µM (inactive).
The like results for `Oc1ccc(-c2nc3ccc4ccccc4c3c3c2CCCC3)c(O)c1` were, in that order, 35.3 µM (inactive), 12.9 µM (inactive), 16.9 µM (inactive) and 17.2 µM (inactive).
Taken in the same sequence, the figures for `CCOC(=O)N/N=C(/N)Cc1ccccc1` were > 100 µM (inactive), > 100 µM (inactive), > 100 µM (inactive) and > 100 µM (inactive).
Taken in the same sequence, the figures for `Nc1nc(Cl)cc(NCC2(CO)CCC(OCc3ccccc3)C2)n1` (stereo not given) were 27.7 µM (inactive), 7.45 µM (inactive), 14.8 µM (inactive) and 16.8 µM (inactive).
For the compound `C=C(Br)CN(C)CC(=C)Br`, the GI50 with DU-145, in the assay with MDA-MB-231, with MDA-MB-435 and in the assay with MDA-N was > 100 µM (inactive) each time.
Regarding `CCC1C(=O)C[C@H]2[C@@H]3C(O)CC4=CC(=O)CC[C@]4(C)[C@H]3CC[C@]12C` (stereo not given in full), the GI50 in the assay on DU-145, in the assay on MDA-MB-231 and in the assay with MDA-MB-435 was > 50 µM (inactive) each time.
As for `CN(C)c1ccc(/C=C/c2ccnc3ccc4ccccc4c23)cc1`, the GI50 with DU-145 was 44.1 µM (inactive); in the assay on MDA-MB-231, 34.5 µM (inactive); in the assay with MDA-MB-435 it was 24.2 µM (inactive); in the assay with MDA-N it was 16.3 µM (inactive).
The like results for `CC1=CCC2CC1C(C(=O)c1c[nH]c3ccccc13)=NC2(C)C` (stereo not given) were, in that order, > 100 µM (inactive), 51.9 µM (inactive), 47.8 µM (inactive) and > 10 µM (inactive).
`CCn1c(SCC(=O)N/N=C/c2ccccc2)nc2ccccc2c1=O`: the GI50 in the assay on DU-145 was 48.2 µM (inactive); in the assay with MDA-MB-231, 14.3 µM (inactive); in the assay on MDA-MB-435, 2.11 µM (inactive); in the assay on MDA-N, 2.54 µM (inactive).
The like results for `COc1ccc(CCn2ccc(C)n2)c(OC)c1` were, in that order, > 100 µM (inactive), > 100 µM (inactive), > 100 µM (inactive) and > 100 µM (inactive).
The like results for `CSc1nc2c(c(=O)n1C)N=C(c1ccc(Cl)cc1)CC(c1ccccc1)N2` (stereo not given) were, in that order, 24.7 µM (inactive), 11.9 µM (inactive), 34.4 µM (inactive) and 15.7 µM (inactive).
Take `CC(=O)N(C)SCC(NC(=O)C(Cc1ccccc1)NC(=O)OCc1ccccc1)C(=O)NC(Cc1ccccc1)C(=O)NC(Cc1cn(C=O)c2ccccc12)C(=O)NC(CCCCNC(=O)OCc1ccccc1)C(=O)NC(C(=O)NC(CSN(C)C(C)=O)C(=O)NO)C(C)OCc1ccccc1` (stereo not given): the GI50 in the assay on DU-145, in the assay with MDA-MB-231, in the assay with MDA-MB-435 and in the assay on MDA-N was > 100 µM (inactive) throughout.
Regarding `C/C(CC(O)(C(F)(F)F)C(F)(F)F)=N/Nc1ccc([N+](=O)[O-])cc1[N+](=O)[O-]`, the GI50 with DU-145 was 2.29 µM (inactive); in the assay on MDA-MB-231 it was 2.28 µM (inactive); in the assay with MDA-MB-435 it was 3.15 µM (inactive); with MDA-N it was 4.46 µM (inactive).
The like results for `O=C1OC(c2ccccc2Br)=N/C1=C/c1ccccc1` were, in that order, > 100 µM (inactive), 40.7 µM (inactive), 29.2 µM (inactive) and 25.4 µM (inactive).
Consider `CC(CO)(CO)N1C(=O)C2C3C=CC(C3)C2C1=O` (stereo not given), for which the GI50 in the assay with DU-145, with MDA-MB-231, with MDA-MB-435 and in the assay on MDA-N was > 100 µM (inactive) each time.
For the compound `C=C(C)COc1ccc2c(c1)CCC1C2CCC2(C)C(=O)/C(=N/O)CC12` (stereo not given), the GI50 is 2.12 µM (inactive) with DU-145, 1.66 µM (inactive) in the assay on MDA-MB-231, 2.27 µM (inactive) in the assay on MDA-MB-435 and 3.47 µM (inactive) in the assay with MDA-N.
In the case of `CCC(Sc1cc(Cl)c(C)cc1S(=O)(=O)Nc1nc(N)nc(N(C)C)n1)C(=O)O` (stereo not given), the GI50 in the assay with DU-145 and with MDA-N was > 10 µM (inactive) throughout.
With `NC(=O)c1oc([N+](=O)[O-])c(-c2ccccc2)c1-c1ccccc1`, the values for the GI50 in the assay with DU-145, in the assay with MDA-MB-231 and with MDA-MB-435 were 26.9 µM (inactive), 13.5 µM (inactive) and 14.9 µM (inactive), respectively.
On to `O=C(NS(=O)(=O)OCC(Cl)(Cl)Cl)SCCC(F)(F)C(F)(F)C(F)(F)C(F)(F)C(F)(F)C(F)(F)F`, for which the GI50 was 46.9 µM (inactive) in the assay with DU-145, 25.4 µM (inactive) in the assay with MDA-MB-231 and 23.8 µM (inactive) in the assay with MDA-MB-435.
